Assay results taken from patent publication US4465676A, “16α Halogen substituted 3,17β-dihydroxy steroidal estrogens” (priority 1980, dated 1984).
pKd: −log10 of the molar value.

Legend:
[1] = Stability of the radiolabelled compound on storage; format: physicochemical
Description: In several experiments the yield of ^125 I-labeled estradiol ranged from 25 to 65 percent of the incubated ^125 I. The purified radioactive iodinated compound was stored at 0° to 4° C. in a benzene-methanol mixture (95:5).

[2] = tested on: testosterone-estradiol binding globulin; assay: Binding to testosterone-estradiol binding globulin of human plasma
Excerpt: This protein contaminates most human tissue preparations, complicating the detection of sex steroid receptors.

[3] = tested on: antisera against bovine serum albumin complexes with E2-17-hemisuccinate, E2-6-carboxymethyloxime and E2-3-carboxymethyl ether; assay: Radioimmunoassay with antisteroid antisera; format: binding, rabbits; conditions: three antisera, various dilutions
Description: Antisteroid antisera were produced in rabbits immunized with steroid-bovineserum albumin conjugates.
Varying amounts of E2 dissolved in methanol were added to test tubes and evaporated to dryness. The residues were dissolved in 100 μl of antiserum that had been diluted in 0.1M phosphate, pH 7.0/0.015M sodium azide/0.15M NaCl/0.1% gelatin (PBS buffer). […] Upon completion of the incubation, 100 μl of 0.5% gelatin in PBS buffer was added, followed by 1 ml of PBS buffer containing 2.5 mg of dextran-coated charcoal. The mixture was agitated in a vortex mixer and, after 10 minutes at 4° C., it was centrifuged at 5000×g for 10 minutes at 4° C. Aliquots (0.9 ml) were assayed for radioactivity.
The data also indicate that very sensitive radioimmunoassays could be developed with all three antisera.

[4] = target: T1, estrogen receptors (rat uterine cytosol) (Rattus norvegicus, UniProt P06211); assay: Kinetic experiments and Scatchard analyses in rat uterine cytosol
T1 sequence (P06211 1-600): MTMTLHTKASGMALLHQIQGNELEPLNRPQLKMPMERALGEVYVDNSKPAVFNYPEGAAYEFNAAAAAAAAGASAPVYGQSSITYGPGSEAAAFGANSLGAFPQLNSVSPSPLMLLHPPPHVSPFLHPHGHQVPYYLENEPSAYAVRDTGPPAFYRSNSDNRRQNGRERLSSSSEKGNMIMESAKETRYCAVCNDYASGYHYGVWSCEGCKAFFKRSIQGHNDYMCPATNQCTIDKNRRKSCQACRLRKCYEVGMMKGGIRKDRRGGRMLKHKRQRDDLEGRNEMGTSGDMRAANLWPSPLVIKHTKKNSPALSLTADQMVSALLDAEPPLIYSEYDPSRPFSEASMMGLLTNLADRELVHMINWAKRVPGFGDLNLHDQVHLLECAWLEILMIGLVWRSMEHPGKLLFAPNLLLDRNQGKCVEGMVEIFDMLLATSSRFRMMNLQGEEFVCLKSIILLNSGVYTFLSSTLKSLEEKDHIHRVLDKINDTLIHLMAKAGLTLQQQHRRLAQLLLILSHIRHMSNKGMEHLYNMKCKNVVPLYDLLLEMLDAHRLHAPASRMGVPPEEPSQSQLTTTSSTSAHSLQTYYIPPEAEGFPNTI

[5] = target: T2, calf uterine estrogen receptor (Bos taurus, UniProt P49884); assay: Saturation and Scatchard analysis of the estrogen receptor from calf uterus; format: binding; conditions: calf uterine cytosol
T2 construct: Fresh calf uteri obtained from a slaughterhouse; from tissue; host or cells: calf uterus, 150,000 x g cytosol from lyophilized powder
T2 sequence (P49884 1-596): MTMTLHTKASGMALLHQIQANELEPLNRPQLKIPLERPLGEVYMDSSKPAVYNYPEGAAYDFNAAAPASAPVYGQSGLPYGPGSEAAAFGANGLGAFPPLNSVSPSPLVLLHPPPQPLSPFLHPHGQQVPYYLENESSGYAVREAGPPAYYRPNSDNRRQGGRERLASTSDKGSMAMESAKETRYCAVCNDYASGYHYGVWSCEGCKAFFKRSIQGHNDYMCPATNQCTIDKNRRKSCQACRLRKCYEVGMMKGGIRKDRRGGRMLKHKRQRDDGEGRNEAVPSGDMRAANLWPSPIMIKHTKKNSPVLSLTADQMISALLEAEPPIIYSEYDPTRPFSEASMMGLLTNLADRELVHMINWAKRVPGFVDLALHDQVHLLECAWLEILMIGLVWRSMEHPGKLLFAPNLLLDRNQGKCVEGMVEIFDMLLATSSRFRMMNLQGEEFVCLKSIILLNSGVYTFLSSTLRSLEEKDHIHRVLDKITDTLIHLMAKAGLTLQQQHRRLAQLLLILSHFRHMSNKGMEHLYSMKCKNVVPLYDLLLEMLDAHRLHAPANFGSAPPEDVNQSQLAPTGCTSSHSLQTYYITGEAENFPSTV
Description: Fresh calf uteri obtained from a slaughterhouse were brought to the laboratory on ice, immediately trimmed of fat, and cut into small pieces; the pieces were frozen in liquid nitrogen and pulverized. The pulverized frozen tissue was lyophilized, and the desiccated powder was stored under vacuum in sealed vials at -80° C. The uterine powders were usually used within 1 month of pulverization. When needed, the powders were suspended in 0.1M Tris-HCl, pH 7.4/2.5 mM EDTA/5 mM dithiotreithol (TED buffer) at 2.5 mg/ml and homogenized at 0° C. in a Polytron homogenizer with two or three pulses at 15 seconds each. The homogenate was then centrifuged at 150,000×g for 60 minutes and the resulting supernatant (cytosol), containing approximately 1 mg of protein per ml, was used for binding studies on the estrogen receptor.
After the solvent was removed under a stream of N2, 250 μl of cytosol was added and the samples were incubated at 0°-2° C. overnight. The following morning, 250 μl of a 0.5% suspension of dextran-coated charcoal in TED buffer was added to the tubes which then were mixed and centrifuged at 5000×g for 10 minutes. The supernatant was assayed to determine bound radioactivity.
A saturation analysis of the estrogen receptor from calf uterus was conducted. […] Nonspecific binding, specific binding and total binding were determined in parallel incubations containing 0.7 μM DES.
A Scatchard analysis of the estrogen receptor from calf uterus was also conducted.

[6] = target: T3, estrogen receptor (calf uterine cytosol) (Bos taurus, UniProt P49884); assay: Competition for the estrogen receptor in calf uterine cytosol; format: binding; conditions: 125I-E2 0.22 nM, 3H-E2 0.74 nM
T3 construct: Fresh calf uteri obtained from a slaughterhouse; from tissue; host or cells: calf uterus, 150,000 x g cytosol from lyophilized powder
T3 sequence (P49884 1-596): T2 sequence (P49884 1-596)
Description: Several compounds, at the two indicated concentrations, were allowed to compete with both labeled steroids for sites in calf uterine cytosol. Incubations were overnight at 4° C., and bound and free steroids were separated with dextran-coated charcoal.

For `C[C@]12CC[C@@H]3c4ccc(O)cc4CC[C@H]3[C@@H]1C[C@@H]([125I])[C@@H]2O` [^125 I-E2, 16α-[^125 I]iodoestra-1,3,5(10)-triene-3,17β-diol], the decomposition on storage ([1]; weeks of storage at 0° to 4° C. in benzene-methanol (95:5)) was “no signs of decomposition”, the decomposition on storage ([1]; weeks of storage of 4° C.) was “little sign of decomposition” and the “binding to testosterone-estradiol binding globulin” value [2] was “does not bind”. For the same compound, the “binding of tracer to antisera” value [3] was “bound to all three antisera”, the pKd [4] was 9.57 and the “radioactivity bound (binding capacities)” value [5] was 122,000 cpm. The “% B0 (initial specific binding of tracer alone)” value [6] was 40%.
